Test results reported in the NIST ThermoML archive (doi:10.1021/je700521t).

Assay: refractive index (Na D-line) (dimensionless); xn = mol fraction of the nth substance listed
Details: 101 kPa, Liquid, Standard Abbe refractometry

CCCCn1cc[n+](C)c1.[O-][Cl+3]([O-])([O-])[O-] [1-butyl-3-methylimidazolium perchlorate] + CCO
refractive index
Details | x2 = 0.1 | x2 = 0.165 | x2 = 0.291 | x2 = 0.401 | x2 = 0.479
283.15 K | 1.475 | 1.4725 | 1.468 | 1.4625 | 1.459
288.15 K | 1.4738 | 1.4715 | 1.4667 | 1.4612 | 1.4575
293.15 K | 1.4725 | 1.47 | 1.4655 | 1.4595 | 1.4563
298.15 K | 1.471 | 1.4687 | 1.464 | 1.458 | 1.455
303.15 K | 1.4697 | 1.4673 | 1.4627 | 1.4568 | 1.4535
308.15 K | 1.4685 | 1.466 | 1.4615 | 1.4555 | –
313.15 K | 1.467 | 1.4648 | 1.46 | 1.454 | –
318.15 K | 1.4655 | 1.4637 | 1.4587 | – | –
323.15 K | 1.4645 | 1.462 | 1.457 | – | –
328.15 K | 1.463 | 1.4608 | 1.456 | – | –
333.15 K | 1.4615 | 1.4595 | 1.4545 | – | –
338.15 K | 1.4603 | 1.458 | 1.4532 | – | –
343.15 K | 1.459 | 1.4565 | 1.4518 | – | –

CCCCCCCC[n+]1ccn(C)c1.F[B-](F)(F)F [1-methyl-3-octylimidazolium tetrafluoroborate] + CCO
refractive index
Details | x2 = 0.081 | x2 = 0.161 | x2 = 0.315 | x2 = 0.511 | x2 = 0.612 | x2 = 0.753
283.15 K | 1.4335 | 1.4315 | 1.43 | 1.4265 | 1.4225 | 1.4132
288.15 K | 1.4323 | 1.4305 | 1.4288 | 1.425 | 1.4212 | 1.4125
293.15 K | 1.431 | 1.4292 | 1.4273 | 1.4237 | 1.42 | 1.411
298.15 K | 1.4295 | 1.428 | 1.426 | 1.423 | 1.4185 | 1.4098
303.15 K | 1.4284 | 1.427 | 1.4245 | 1.4208 | 1.4172 | 1.4085
308.15 K | 1.4268 | 1.4255 | 1.423 | 1.4195 | 1.416 | 1.4072
313.15 K | 1.4255 | 1.424 | 1.4219 | 1.418 | 1.4143 | 1.407
318.15 K | 1.424 | 1.4225 | 1.4205 | 1.4168 | 1.413 | 1.4065
323.15 K | 1.4225 | 1.421 | 1.419 | 1.415 | 1.4115 | 1.4055
328.15 K | 1.4213 | 1.42 | 1.4178 | 1.4137 | 1.41 | 1.4045
333.15 K | 1.4205 | 1.4188 | 1.416 | 1.4125 | 1.4085 | 1.404
338.15 K | 1.419 | 1.4173 | 1.4145 | 1.4118 | 1.4078 | 1.4033
343.15 K | 1.4175 | 1.416 | 1.4132 | 1.411 | 1.4065 | 1.402
